# What was measured:
# Assay type in all cases: cell-based, canine
# OA-Associated Genes [1] = assay: Microarray analysis of chondrocyte beads treated with 1,25 D3 or 24,25 D3; conditions: summary statement, Tables 19-20
# Text: Microarray probes were generated by PCR-amplifying clones isolated from differential display. Probes were spotted in duplicate onto poly-L-lysine coated slides using a GMS417 (Affymetrix) arrayer. Osteoarthritic cartilage samples were obtained from the femoral heads of clinically diagnosed canines undergoing total […] replacement. RNA was hybridized to the slides using the HC ExpressArray ([…]) kit and visualized using a GMS418 (Affymetrix) scanner. The […] (Biodiscovery) program was used for spot finding and subsequent data analysis was performed using GeneSight (Biodiscovery). Expression levels are represented after background subtraction, log(base 2) transformation and global slide signal normalization. […] Scanned images representing RNA transcripts bound to specific clones were quantified and checked for spot quality control using […] analysis software (BioDiscovery). Quantified images were analyzed using […] analysis software (BioDiscovery). The analysis represented subtraction of background surrounding the spots, averaging spot replicates, deletion of clone information representing clone hybridization signals not greater than 200 above background on all samples, log (base 2) transformation and global normalization of each slide (values expressed as percent of average spot intensity). […]
# OA-Associated Genes [2] = assay: Microarray analysis of chondrocyte beads treated with glucosamine; conditions: summary statement, Tables 13-18
# Text: (§1) Microarray probes were generated by PCR-amplifying clones isolated from differential display. Probes were spotted in duplicate onto poly-L-lysine coated slides using a GMS417 (Affymetrix) arrayer. Osteoarthritic cartilage samples were obtained from the femoral heads of clinically diagnosed canines undergoing total […] replacement. RNA was hybridized to the slides using the HC ExpressArray (Digene) kit and visualized using a GMS418 (Affymetrix) scanner. The Imagene (Biodiscovery) program was used for spot finding and subsequent data analysis was performed using GeneSight (Biodiscovery). Expression levels are represented after background subtraction, log(base 2) transformation and global slide signal normalization. […]
# (§2) Scanned images representing RNA transcripts bound to specific clones were quantified and checked for spot quality control using Imagene analysis software (BioDiscovery). Quantified images were analyzed using Genesight analysis software (BioDiscovery). The analysis represented subtraction of background surrounding the spots, averaging spot replicates, deletion of clone information representing clone hybridization signals not greater than 200 above background on all samples, log (base 2) transformation and global normalization of each slide (values expressed as percent of average spot intensity). […]
# OA-Associated Genes [3] = assay: Microarray analysis of chondrocytes enriched with EPA or AA; conditions: summary statement, Tables 21-23
# Text: as §1, §2
# OA-Associated Genes [4] = assay: Microarray analysis of chondrocyte beads treated with chondroitin sulfate; conditions: summary statement, Tables 7-12
# Text: as §1, §2
molecule,measurement,setting,value
"C=C1/C(=C\C=C2/CCC[C@]3(C)[C@@H]([C@H](C)CCCC(C)(C)O)CC[C@@H]23)C[C@@H](O)C[C@@H]1O [1α,25-dihydroxyvitamin D3]",effect on expression of OA-related genes,OA-Associated Genes [1],affected the expression of OA-related genes
"C=C1CC[C@H](O)C/C1=C/C=C1\CCC[C@]2(C)[C@@H]([C@H](C)CC[C@@H](O)C(C)(C)O)CC[C@@H]12 [24R,25-dihydroxyvitamin D3]",effect on expression of OA-related genes,OA-Associated Genes [1],affected the expression of OA-related genes
"N[C@H]1C(O)O[C@H](CO)[C@@H](O)[C@@H]1O (some centres unmarked) [Glucosamine, glucosamine]",effect on OA-associated genes,OA-Associated Genes [2],have an effect on a variety of OA-associated genes
"CCCCC/C=C\C/C=C\C/C=C\C/C=C\CCCC(=O)O [arachidonic acid (AA), arachidonic acid]",effect on OA-related genes,OA-Associated Genes [3],affect OA-related genes
chondroitin sulfate,effect on OA-associated genes,OA-Associated Genes [4],have an effect on a wide variety of OA-associated genes

# — patent US8420312B2, “Genes associated with canine osteoarthritis and related methods and compositions” (Nestec S.A., priority 2004, dated 2013)
